Laboratory results published in the supplement of paper PMC6045584.
± gives the standard deviation of the averaged measurements.

Key:
ABIRATERONE = compound: C[C@]12CC[C@H](O)CC1=CC[C@@H]1[C@@H]2CC[C@]2(C)C(c3cccnc3)=CC[C@@H]12 [ABIRATERONE]; assay: surviving fraction relative to DMSO-only wells; higher = less growth inhibition; conditions: exposure time: 5 days
Procedure, shortened: (§1)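 Viability values are CellTiter-Glo luminescence readings, given as surviving fraction against the median of DMSO-only wells. The readings were taken after 10 minutes at room temperature, following five days of continuous exposure to inhibitors at 0.5, 1, 5, 10, 50, 100, 500 and 1000 nM that began 24 hours after log-phase tumour cell lines were seeded at 250–500 cells per well in 384-well plates. Every line was screened three times and kept only if replicate Pearson r >0.7 and median Z' >0.3.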

MLN-4924 = compound: NS(=O)(=O)OC[C@@H]1C[C@@H](n2ccc3c(N[C@H]4CCc5ccccc54)ncnc32)C[C@@H]1O [MLN-4924]; assay: as above; conditions: exposure time: 5 days
Procedure, shortened: as §1

Test System	surviving fraction (ABIRATERONE; 0.5 nM)	surviving fraction (ABIRATERONE; 1 nM)	surviving fraction (ABIRATERONE; 5 nM)	surviving fraction (ABIRATERONE; 10 nM)	surviving fraction (ABIRATERONE; 50 nM)	surviving fraction (ABIRATERONE; 100 nM)	surviving fraction (ABIRATERONE; 500 nM)	surviving fraction (ABIRATERONE; 1000 nM)	surviving fraction (MLN-4924; 0.5 nM)	surviving fraction (MLN-4924; 1 nM)	surviving fraction (MLN-4924; 5 nM)	surviving fraction (MLN-4924; 10 nM)	surviving fraction (MLN-4924; 50 nM)	surviving fraction (MLN-4924; 100 nM)	surviving fraction (MLN-4924; 500 nM)	surviving fraction (MLN-4924; 1000 nM)
HELA CERVIX	1.08 ± 0.068	1.07 ± 0.037	1.1 ± 0.032	1.03 ± 0.023	1.2 ± 0.048	1.2 ± 0.062	1.23 ± 0.074	1.15 ± 0.055	1.12 ± 0.038	1.07 ± 0.06	1.1 ± 0.052	1 ± 0.022	1.16 ± 0.086	1.17 ± 0.1	0.718 ± 0.055	0.611 ± 0.027
HOS BONE	1.03 ± 0.02	1.025 ± 0.0032	1.08 ± 0.029	1.02 ± 0.014	1.09 ± 0.019	1.095 ± 0.0072	1.08 ± 0.028	1.06 ± 0.025	1.04 ± 0.026	1.02 ± 0.014	1.01 ± 0.042	0.949 ± 0.027	0.574 ± 0.033	0.337 ± 0.013	0.0287 ± 0.0011	0.0287 ± 0.0021
HOSMNG BONE	0.985 ± 0.035	0.99 ± 0.049	1 ± 0.077	0.973 ± 0.039	1.08 ± 0.042	1.1 ± 0.087	1.05 ± 0.096	1.08 ± 0.014	0.883 ± 0.092	0.897 ± 0.032	0.951 ± 0.024	0.917 ± 0.05	1.04 ± 0.14	1.08 ± 0.053	0.503 ± 0.18	0.097 ± 0.016
HSSYII SYNOVIAL	0.989 ± 0.03	0.972 ± 0.034	0.937 ± 0.013	0.974 ± 0.027	0.983 ± 0.068	0.966 ± 0.023	0.962 ± 0.048	0.957 ± 0.042	1.01 ± 0.14	1 ± 0.078	0.965 ± 0.033	0.992 ± 0.071	0.286 ± 0.012	0.166 ± 0.008	0.0248 ± 0.001	0.0283 ± 0.002
HT1080 SOFT TISSUE	1.01 ± 0.013	1.05 ± 0.015	1.03 ± 0.012	1.02 ± 0.017	1.01 ± 0.023	1.02 ± 0.02	1.04 ± 0.027	0.997 ± 0.019	1.074 ± 0.0072	1.05 ± 0.047	1.112 ± 0.0055	1.14 ± 0.045	0.9977 ± 0.0078	0.705 ± 0.042	0.223 ± 0.022	0.11 ± 0.0061
HU09 BONE	1.02 ± 0.086	1.11 ± 0.048	1.17 ± 0.18	1.12 ± 0.14	1.21 ± 0.086	1.18 ± 0.13	1.03 ± 0.089	1.05 ± 0.12	0.948 ± 0.097	0.931 ± 0.076	1.04 ± 0.03	1.15 ± 0.048	1.01 ± 0.096	0.707 ± 0.052	0.296 ± 0.0049	0.26 ± 0.018
HUO3N1 BONE	1.03 ± 0.019	1.0307 ± 0.00058	1.07 ± 0.049	1.11 ± 0.025	1.07 ± 0.035	1.11 ± 0.029	1.02 ± 0.012	0.995 ± 0.046	0.9977 ± 0.0055	0.994 ± 0.022	1.02 ± 0.017	1.05 ± 0.036	1.17 ± 0.041	1.19 ± 0.034	0.663 ± 0.031	0.528 ± 0.014
JIMT1 BREAST	0.9997 ± 0.0033	0.965 ± 0.027	0.981 ± 0.02	0.962 ± 0.013	1.08 ± 0.047	1.08 ± 0.032	1.02 ± 0.042	0.929 ± 0.012	1.06 ± 0.04	1.016 ± 0.0069	1.06 ± 0.019	1.06 ± 0.017	1.09 ± 0.056	1.06 ± 0.062	0.764 ± 0.046	0.539 ± 0.073
